# Data reported in patent publication US7932272B2, “Antifungal agent containing heterocyclic compound” (Eisai R&D Management Co., Ltd., priority 2003, dated 2011).
# System: A. fumigatus Tsukuba strain
# Assay: Experimental respiratory aspergillus infection model in mice
# Format: in vivo, female DBA/2N mice
# Conditions: 5-fluorouracil-treated mice, A. fumigatus nasal infection, 20 or 40 mg/kg peroral 3 times per day for 3 days, observed until 14 days after infection
# Method: In order to increase susceptibility of the mice to infection, 200 mg/kg of 5-fluorouracil was administered subcutaneously 6 days prior to infection.
# A. fumigatus Tsukuba strain was used.
# A spore suspension of the infection strain was used to coat a potato dextrose agar medium (PDA), a standing culture was carried out for 4 to 7 days at 35° C., spore was then suspended in a sterilized physiological saline containing 0.05% Tween 80. By counting the pore count on a cytometry plate, the suspension was diluted to 6×10^5 cells/ml with sterilized physiological saline containing 0.05% Tween 80 to serve as fungal inoculum.
# Under ketalar anesthesia, 50 μl of fungal inoculum was used to inoculate 8 to 9 week-old female DBA/2N mice in the nose (3×10^4 cells/mouse).
# From 1 hour after fungal inoculation, 0.2 ml of agent solution (dissolved or suspended in sterilized physiological saline containing 6.5% DMSO and 3.5% Tween 80), was administered into the stomach using a peroral probe 3 times per day for 3 days. The agent dosage was from 20 or 40 mg/kg, and the number of animals in one group was 5 animals.
# The protective effect was determined by observing life/death until 14 days after infection and calculating the mean survival days.
row,SMILES,Mean Survival Days [days]
1,"O=C(NCc1ccn(Cc2cccc(F)c2)c1)c1ccc2ncccc2n1 [Example D-4, [1,5]Naphthylidine-2-carboxylic acid (1-(3-fluoro-benzyl)-1H-pyrrol-3-ylmethyl)-amide]",10.8
2,"O=C(NCc1ccc(Oc2ccc(F)cc2)s1)c1ccc2ncccc2n1 [Example D-7, [1,5]Naphthylidine-2-carboxylic acid (5-(4-fluoro-phenoxy)-thiophen-2-ylmethyl)-amide]",10.6
